{
  "source": "patent US20070044168A1",
  "about": "“Transplantable tumor model” (Northwestern University, priority 2005, published 2007)",
  "system": "clonal CB1 zebrafish",
  "experiment": "Tumor induction by continuous immersion in DEN solution",
  "assay_type": "in vivo",
  "conditions": "100 ppm DEN immersion for 8 weeks",
  "procedure": "Tumor induction. Sixty-five 2.5-month-old fish from the clonal CB1 line were used for tumor induction by continuous immersion in N-nitrosodiethylamine (DEN) solution (100 ppm) during the 8 weeks. During DEN, exposure fish were maintained in 20-L acrylic tanks equipped with a mechanical filter and an automatic heater. The filters were cleaned twice weekly. The complete exchange of water containing the carcinogen was done every 2 weeks. The water temperature was maintained at 26±0.5° C. Following completion of DEN exposure the fish were transferred to a 20-L system tank and remained under observation for up to 9 months.\nThe grossly visible tumors began to emerge in fish 3 to 7 months after the beginning of exposure to DEN. Four spontaneous tumors diagnosed as acinar cell carcinomas of the pancreas were detected in 10.5- to 18-month-old female CB1 fish (See, e.g., FIG. 1G).",
  "data": [
    {"smiles": "CCN(CC)N=O", "note": "[DEN, N-nitrosodiethylamine]", "values": [
      {"measurement": "emergence of grossly visible tumors after the beginning of exposure", "setting": "CB1 fish", "value": "3 to 7", "unit": "months"},
      {"measurement": "primary tumors localized in the abdominal area", "setting": "sixty-five 2.5-month-old CB1 fish, observed up to 9 months", "value": 35}
    ]}
  ]
}
